Results published in ChEMBL document CHEMBL5506042, “Discovery of the Clinical Candidate IDOR-1117-2520: A Potent and Selective Antagonist of CCR6 for Autoimmune Diseases” (J Med Chem, 2024).
Activity calls are given as the source filed them. The rule behind the calls is not given here.

Legend:
[1] = Tmax in C57BL/6 mouse at 50 mg/kg, po; type: ADME, organism-based; conditions: in vivo
[2] = Intrinsic clearance in rat liver microsomes at 0.1 uM measured for 15 mins in presence of NADPH regenerating system by LC-MS/MS analysis; type: ADME, Microsome; conditions: read-out: CLH
[3] = AUC in C57BL/6 mouse at 50 mg/kg, po; type: ADME, organism-based; conditions: in vivo
[4] = AUC in C57BL/6 mouse at 15 mg/kg, po; type: ADME, organism-based; conditions: in vivo
[5] = Chemical stability of the compound at 0.1 mg/ml at pH 7 irradiated with xenon lamp at 250W/m2 incubated for 24 hrs by stress test; type: physicochemical; conditions: buffer, read-out: Stability
[6] = Cmax in C57BL/6 mouse at 15 mg/kg, po; type: ADME, organism-based; conditions: in vivo
HepaRG = assay: Cytotoxicity against human HepaRG cells assessed as leakage of intracellular LDH at 30 uM incubated for 24 hrs by spectrophotometry
[7] = Intrinsic clearance in human liver microsomes at 1 uM measured for 15 mins in presence of NADPH regenerating system measured per mg protein by LC-MS/MS analysis; type: ADME, Microsome; conditions: read-out: CLH
[8] = Tmax in C57BL/6 mouse at 15 mg/kg, po; type: ADME, organism-based; conditions: in vivo
[9] = target: T1, C-C chemokine receptor type 6 (Mus musculus, UniProt O54689); assay: Antagonist activity at CCR6 in C57BL/6J mouse whole blood assessed as inhibition of CCL20-stimulated receptor internalization in lymphocytes incubated for 40 mins followed by CCL20 addition and measured after 40 mins by flow cytometry
T1 sequence (O54689 whole entry): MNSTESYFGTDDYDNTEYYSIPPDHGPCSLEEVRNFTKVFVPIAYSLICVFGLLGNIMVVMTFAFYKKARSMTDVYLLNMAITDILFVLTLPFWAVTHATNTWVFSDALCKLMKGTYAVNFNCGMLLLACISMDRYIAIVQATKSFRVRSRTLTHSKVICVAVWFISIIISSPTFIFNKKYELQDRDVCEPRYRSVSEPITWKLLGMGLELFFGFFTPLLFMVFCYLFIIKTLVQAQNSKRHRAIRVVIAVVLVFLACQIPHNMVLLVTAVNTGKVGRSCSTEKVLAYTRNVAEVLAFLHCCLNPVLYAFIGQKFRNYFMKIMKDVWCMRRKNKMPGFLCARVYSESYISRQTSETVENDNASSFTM

Mus musculus [10] = assay: Inhibition of chemotaxis of CCR6-positive B cells in bronchoalveolar lavage fluid in ovalbumin-induced inflammation BALB/c mouse model at 15 mg/kg/day, po treated with OVA and compound from day 1 to day 18 and measured at 24 hrs post last dose of OVA challenge by flow cytometry; type: functional, organism-based; conditions: time 18.0 day
Mus musculus [11] = assay: Inhibition of chemotaxis of CCR6-positive B cells in bronchoalveolar lavage fluid in ovalbumin-induced inflammation BALB/c mouse model at 15 mg/kg/day, po treated with OVA from day 1 to day 18 and with compound from day 8 to 18 and measured at 24 hrs post last dose of OVA challenge by flow cytometry; type: functional, organism-based; conditions: time 11.0 day
[12] = Cmax in Wistar rat at 10 mg/kg, po; type: ADME, organism-based; conditions: in vivo
[13] = Oral bioavailability in Wistar rat at 10 mg/kg; type: ADME, organism-based; conditions: in vivo
[14] = Fraction unbound in mouse plasma at 1 uM by rapid equilibrium dialysis based LC-MS/MS analysis; type: ADME, cell-free
[15] = Oral bioavailability in Wistar rat at 50 mg/kg; type: ADME, organism-based; conditions: in vivo
[16] = AUC in Wistar rat at 10 mg/kg, po; type: ADME, organism-based; conditions: in vivo
[17] = Chemical stability of the compound at 0.1 mg/ml at pH 4 irradiated with xenon lamp at 250W/m2 incubated for 24 hrs by stress test; type: physicochemical; conditions: buffer, read-out: Stability
[18] = Chemical stability of the compound at 0.1 mg/ml at pH 9 irradiated with xenon lamp at 250W/m2 incubated for 24 hrs by stress test; type: physicochemical; conditions: buffer, read-out: Stability
[19] = Chemical stability of the compound at 0.1 mg/ml at pH 10 irradiated with xenon lamp at 250W/m2 incubated for 24 hrs by stress test; type: physicochemical; conditions: buffer, read-out: Stability
[20] = Intrinsic clearance in mouse liver microsomes at 1 uM measured for 15 mins in presence of NADPH regenerating system by LC-MS/MS analysis; type: ADME, Microsome; conditions: read-out: CLH
[21] = Chemical stability of the compound at 0.1 mg/ml at pH 2 irradiated with xenon lamp at 250W/m2 incubated for 24 hrs by stress test; type: physicochemical; conditions: buffer, read-out: Stability
[22] = Intrinsic clearance in rat liver microsomes at 3 uM measured for 15 mins in presence of NADPH regenerating system by LC-MS/MS analysis; type: ADME, Microsome; conditions: read-out: CLH
[23] = Intrinsic clearance in rat liver microsomes at 1 uM measured for 15 mins in presence of NADPH regenerating system by LC-MS/MS analysis; type: ADME, Microsome; conditions: read-out: CLH
[24] = Cmax in Wistar rat at 50 mg/kg, po; type: ADME, organism-based; conditions: in vivo
[25] = Cmax in C57BL/6 mouse at 50 mg/kg, po; type: ADME, organism-based; conditions: in vivo
[26] = Fraction unbound in rat plasma at 1 uM by rapid equilibrium dialysis based LC-MS/MS analysis; type: ADME, cell-free
[27] = Volume of distribution at steady state in Wistar rat at 1 mg/kg, iv; type: ADME, organism-based; conditions: in vivo, read-out: Vdss
[28] = Tmax in Wistar rat at 50 mg/kg, po; type: ADME, organism-based; conditions: in vivo
[29] = AUC in Wistar rat at 50 mg/kg, po; type: ADME, organism-based; conditions: in vivo
[30] = Lipophilicity, LogD of the compound in 1-Octanol/PBS at pH 7.4 by miniaturized shake flask method
[31] = Tmax in Wistar rat at 10 mg/kg, po; type: ADME, organism-based; conditions: in vivo
[32] = fCmax in po dosed C57BL/6 mouse; type: ADME, organism-based; conditions: in vivo
[33] = Clearance in Wistar rat at 1 mg/kg, iv; type: ADME, organism-based; conditions: in vivo
[34] = Half life in Wistar rat at 1 mg/kg, iv; type: ADME, organism-based; conditions: in vivo
[35] = Cytotoxicity against human HepG2 cells assessed as reduction in cell viability incubated for 72 hrs by CellTiter-Glo assay

SMILES: CN1CC(C)(C(O)(c2ccc(OC(F)(F)F)cc2)c2cncc(N3CCCC3)c2)C1 (racemic)
- Tmax [1]: 120 min
- microsomal CLint at […], 0.1 µM [2]: > 1250 µL/min/mg
- AUC [3]: 5030 ng·h/mL
- AUC [4]: 145 ng·h/mL
- remaining at 24 h, 0.1 mg/ml [5]: 3%
- Cmax [6]: 30 ng/mL
- Activity (HepaRG): Non-Toxic
- microsomal CLint at […], 1 µM [7]: 146 µL/min/mg
- Tmax [8]: 30 min
- IC50 [9]: 0.0013 µM
- inhibition (Mus musculus [10]): Active
- inhibition (Mus musculus [11]): Active
- Cmax [12]: 110 ng/mL
- bioavailability [13]: 6%
- fraction unbound at 1 µM [14]: 0.05
- bioavailability [15]: 11%
- AUC [16]: 165 ng·h/mL
- remaining at 24 h, 0.1 mg/ml [17]: 4%
- remaining at 24 h, 0.1 mg/ml [18]: 2%
- remaining at 24 h, 0.1 mg/ml [19]: 2%
- microsomal CLint at […], 1 µM [20]: 666 µL/min/mg
- remaining at 24 h, 0.1 mg/ml [21]: 97%
- microsomal CLint at […], 3 µM [22]: 450 µL/min/mg
- microsomal CLint at […], 1 µM [23]: 750 µL/min/mg
- Cmax [24]: 308 ng/mL
- Cmax [25]: 1100 ng/mL
- fraction unbound at 1 µM [26]: 0.06
- Vd [27]: 11 L/kg
- Tmax [28]: 30 min
- AUC [29]: 1500 ng·h/mL
- logD [30]: 2.2
- Tmax [31]: 30 min
- fCmax [32]: 55 ng/mL
- clearance [33]: 62 mL/min/kg
- half-life [34]: 144 min
- IC50 at 72 h [35]: 11 µM
